Assay results as given in patent US11647752B2 (priority 2020, dated 2023).
“And” between values parts separate entries of the source, which are not always exact repeats. Equal entries are not always repeated. Where two headings read alike, the source gives them in different places.

Assays:
[1] = tested on: Ralstonia solanacearum in tobacco roots; type: in vivo; settings: for Amount of Ralstonia solanacearum in the roots: 12 h of inoculation
[2] = tested on: Ralstonia solanacearum (tobacco bacterial wilt pathogen HF-1-1); type: cell-based; settings: 50 μL per hole, 37° C., 12 h
[3] = tested on: Ralstonia solanacearum (pathogen HF-1-1); type: cell-based; settings: NaHS 0, 200, 400, 600, 800 mg/L in liquid culture, 12 h, 37° C.

| SMILES | Amount of Ralstonia solanacearum in the roots ([1]; N- (10 mL 0.8 mmol hydroxylamine)) | Diameter of inhibition zone ([2]; NaHS 200 mg/L) | Diameter of inhibition zone ([2]; NaHS 400 mg/L) | Diameter of inhibition zone ([2]; NaHS 600 mg/L) | Diameter of inhibition zone ([2]; NaHS 800 mg/L) | Biomass of the pathogen HF-1-1 (OD600) [3] | Amount of Ralstonia solanacearum in the roots ([1]; N200 (NaHS 200 mg/L)) | Content of Ralstonia solanacearum in the tobacco roots compared with CK and N- groups ([1]; N200-N800 (NaHS 200-800 mg/L), 24 h and 36 h) | Amount of Ralstonia solanacearum in the roots ([1]; N400 (NaHS 400 mg/L)) | Amount of Ralstonia solanacearum in the roots ([1]; N600 (NaHS 600 mg/L)) | Amount of Ralstonia solanacearum in the roots ([1]; N800 (NaHS 800 mg/L)) | Decrease of number of Ralstonia solanacearum colonized on tobacco roots compared with control group ([1]; NaHS 800 mg/L, 36 hours) [%] |
| --- | --- | --- | --- | --- | --- | --- | --- | --- | --- | --- | --- | --- |
| NO [H2S inhibitor, hydroxylamine, reference compound] | 1.38 ×10^4 CFU/g |  |  |  |  |  |  |  |  |  |  |  |
| [Na+].[SH-] [NaHS] |  | 11.20±0.72 mm and 11.20 mm | 14.61±0.93 mm and 14.61 mm | 19.43±0.41 mm and 19.43 mm | 21.21±1.22 mm and 21.21 mm | decreased with the increase of its concentration | 1.36 ×10^4 CFU/g | relatively lower | 1.39 ×10^4 CFU/g | 1.40 ×10^4 CFU/g | 1.37 ×10^4 CFU/g | 98.32 |
